Test results as given in patent publication US20230111310A1, “CARBOXYLIC ACID DERIVATIVE-SUBSTITUTED IMINO ARYL COMPOUND, PREPARATION METHOD THEREFOR, HERBICIDAL COMPOSITION AND USE THEREOF” (Qingdao Kingagroot Chemical Compound Co., Ltd., priority 2020, published 2023).

Legend:
Assay in all cases: Weeding effect in post-emergence stage
Assay type in all cases: in vivo
[1] = tested on: Echinochloa crusgalli; details: for Weeding effect in post-emergence stage, Echinochloa crusgalli (level): fresh weight control rate level; for Weeding effect in post-emergence stage, Echinochloa crusgalli: level of fresh weight growth control rate
Source text: (§1) The activity level criteria for plant damage (i.e., growth control rate) are as follows:
(§2) Monocotyledonous and dicotyledonous weed seeds (Descurainia sophia, Capsella bursa-pastoris, Abutilon theophrasti, Galium aparine, Stellaria media, Lithospermum arvense, rorippa indica, Alopecurus aequalis, Alopecurus japonicus, Eleusine indica, Beckmannia syzigachne, Sclerochloa dura, Conyza Canadensis, Phleum paniculatum, Veronica didyma Tenore, Bromus japonicus, Aegilops tauschii, Phalaris arundinacea, Amaranthus retroflexus, Chenopodiaceae, Commelina communis, Sonchus arvensis, Convolvulus arvensis, Cirsium setosum, Bidens tripartita L., Solanum nigrum, Acalypha australis, Digitaria sanguinalis, Echinochloa crusgalli, Setaria viridis, Setaria glauca, Leptochloa chinensis, Monochoria vaginalis, Sagittaria trifolia, Scirpus juncoides, Cyperus rotundus, Cyperus iria, Cyperus difformis, Fimbristylis, Portulaca oleracea, Xanthium sibiricum, Pharbitis nil, etc.) and major crop seeds (wheat, corn, rice, soybean, cotton, oilseed rape, millet, sorghum, potato, sesame, ricinus, etc.) were placed in plastic pots filled with soil, then covered with 0.5-2 cm of soil, allowed to grow in a good greenhouse environment. After 2 weeks of sowing, the test plants were treated in the 2-3 leaf stage. The tested compounds of the present invention were respectively dissolved in acetone, then added with Tween 80 and 1.5 liter/ha of emulsifiable concentrate of methyl oleate as synergist, diluted with a certain amount of water to obtain a solution with a certain concentration, and sprayed with a spray tower onto the plants. After the application, the plants were cultured for 3 weeks in the greenhouse, and then the experimental results of the weeding were counted. The doses of the used compounds were 500, 250, 125, 60, 30, 15, 7.5 g/ha, and the averages were obtained by repeating for three times.

[2] = tested on: Abutilon theophrasti; details: for Weeding effect in post-emergence stage, Abutilon theophrasti (level): fresh weight control rate level; for Weeding effect in post-emergence stage, Abutilon theophrasti: level of fresh weight growth control rate
Source text: as §1
as §2, with “The doses of the used compounds were 500, 250, 125, 60, 30, 15, 7.5 g/ha, and the averages were obtained by repeating for three times.” left out

[3] = tested on: Setaria viridis; details: for Weeding effect in post-emergence stage, Setaria viridis (level): fresh weight control rate level; for Weeding effect in post-emergence stage, Setaria viridis: level of fresh weight growth control rate
Source text: as §1
as §2, with “The doses of the used compounds were 500, 250, 125, 60, 30, 15, 7.5 g/ha, and the averages were obtained by repeating for three times.” left out

[4] = tested on: Alopecurus japonicus; details: for Weeding effect in post-emergence stage, Alopecurus japonicus (level): fresh weight control rate level; for Weeding effect in post-emergence stage, Alopecurus japonicus: level of fresh weight growth control rate
Source text: as §1
as §2, with “The doses of the used compounds were 500, 250, 125, 60, 30, 15, 7.5 g/ha, and the averages were obtained by repeating for three times.” left out

[5] = tested on: Eleusine indica; details: for Weeding effect in post-emergence stage, Eleusine indica (level): fresh weight control rate level; for Weeding effect in post-emergence stage, Eleusine indica: level of fresh weight growth control rate
Source text: as §1
as §2, with “The doses of the used compounds were 500, 250, 125, 60, 30, 15, 7.5 g/ha, and the averages were obtained by repeating for three times.” left out

[6] = tested on: Digitaria sanguinalis; details: for Weeding effect in post-emergence stage, Digitaria sanguinalis (level): fresh weight control rate level; for Weeding effect in post-emergence stage, Digitaria sanguinalis: level of fresh weight growth control rate
Source text: as §1
as §2, with “The doses of the used compounds were 500, 250, 125, 60, 30, 15, 7.5 g/ha, and the averages were obtained by repeating for three times.” left out

Row | Structure (SMILES) | Weeding effect in post-emergence stage, Echinochloa crusgalli ([1]; Dose 15 g/ha) | Weeding effect in post-emergence stage, Abutilon theophrasti ([2]; Dose 15 g/ha) | Weeding effect in post-emergence stage, Setaria viridis ([3]; Dose 15 g/ha) | Weeding effect in post-emergence stage, Alopecurus japonicus ([4]; Dose 15 g/ha) | Weeding effect in post-emergence stage, Eleusine indica ([5]; Dose 15 g/ha) | Weeding effect in post-emergence stage, Digitaria sanguinalis ([6]; Dose 15 g/ha) | Weeding effect in post-emergence stage, Echinochloa crusgalli (level) ([1]; Dose 15 g/ha) | Weeding effect in post-emergence stage, Abutilon theophrasti (level) ([2]; Dose 15 g/ha) | Weeding effect in post-emergence stage, Setaria viridis (level) ([3]; Dose 15 g/ha) | Weeding effect in post-emergence stage, Alopecurus japonicus (level) ([4]; Dose 15 g/ha) | Weeding effect in post-emergence stage, Eleusine indica (level) ([5]; Dose 15 g/ha) | Weeding effect in post-emergence stage, Digitaria sanguinalis (level) ([6]; Dose 15 g/ha) | further results
1 | C[C@@H](O/N=C/c1cc(-n2c(=O)n(C)c(=S)n(C)c2=O)c(F)cc1Cl)C(=O)OCC(F)(F)F [439(R)] |  |  |  |  |  |  |  |  |  |  |  |  | Weeding effect in post-emergence stage, Echinochloa crusgalli (level) ([1]; Dose 30 g/ha): 5 (Level 5: growth control rate is above 85%); Weeding effect in post-emergence stage, Abutilon theophrasti (level) ([2]; Dose 30 g/ha): 5 (Level 5: growth control rate is above 85%); Weeding effect in post-emergence stage, Setaria viridis (level) ([3]; Dose 30 g/ha): 5 (Level 5: growth control rate is above 85%); Weeding effect in post-emergence stage, Alopecurus japonicus (level) ([4]; Dose 30 g/ha): 5 (Level 5: growth control rate is above 85%); Weeding effect in post-emergence stage, Eleusine indica (level) ([5]; Dose 30 g/ha): 5 (Level 5: growth control rate is above 85%); Weeding effect in post-emergence stage, Digitaria sanguinalis (level) ([6]; Dose 30 g/ha): 5 (Level 5: growth control rate is above 85%)
2 | CCO/C(C)=N/OC(=O)[C@@H](C)O/N=C/c1cc(-n2c(=O)cc(C(F)(F)F)n(C)c2=O)c(F)cc1Cl [252(R)] | 5 (Level 5: growth control rate is above 85%) | 5 (Level 5: growth control rate is above 85%) | 5 (Level 5: growth control rate is above 85%) | 5 (Level 5: growth control rate is above 85%) | 5 (Level 5: growth control rate is above 85%) | 5 (Level 5: growth control rate is above 85%) |  |  |  |  |  |  | 
3 | COC(=O)C(O/N=C/c1cc(-n2c(=O)cc(C(F)(F)F)n(C)c2=O)c(F)cc1Cl)C1CCCCC1 (stereo not drawn) [Compound 490] |  |  |  |  |  |  | 5 (Level 5: growth control rate is above 85%) | 5 (Level 5: growth control rate is above 85%) | 5 (Level 5: growth control rate is above 85%) | 5 (Level 5: growth control rate is above 85%) | 5 (Level 5: growth control rate is above 85%) | 5 (Level 5: growth control rate is above 85%) | 
4 | CC(O/N=C/c1cc(-n2c(=O)cc(C(F)(F)F)n(C)c2=O)c(F)cc1Cl)C(=O)Oc1ccccc1 (stereo not drawn) [Compound 262] | 5 (Level 5: growth control rate is above 85%) | 5 (Level 5: growth control rate is above 85%) | 5 (Level 5: growth control rate is above 85%) | 5 (Level 5: growth control rate is above 85%) | 5 (Level 5: growth control rate is above 85%) | 5 (Level 5: growth control rate is above 85%) |  |  |  |  |  |  | 
5 | COC(=O)CSC(=O)[C@@H](C)O/N=C/c1cc(-n2c(=O)cc(C(F)(F)F)n(C)c2=O)c(F)cc1Cl [406(R)] |  |  |  |  |  |  | 5 (Level 5: growth control rate is above 85%) | 5 (Level 5: growth control rate is above 85%) | 5 (Level 5: growth control rate is above 85%) | 5 (Level 5: growth control rate is above 85%) | 5 (Level 5: growth control rate is above 85%) | 5 (Level 5: growth control rate is above 85%) | 
6 | C=CCCOC(=O)C(C)O/N=C/c1cc(-n2c(=O)n(C)c(=S)n(C)c2=O)c(F)cc1Cl (racemic) [Compound 6] | 5 (Level 5: growth control rate is above 85%) | 5 (Level 5: growth control rate is above 85%) | 5 (Level 5: growth control rate is above 85%) | 5 (Level 5: growth control rate is above 85%) | 5 (Level 5: growth control rate is above 85%) | 5 (Level 5: growth control rate is above 85%) |  |  |  |  |  |  | 
7 | C[C@@H](O/N=C/c1cc(-n2c(=O)cc(C(F)(F)F)n(C)c2=O)c(F)cc1Cl)C(=O)Oc1ccccc1 [262(R)] | 5 (Level 5: growth control rate is above 85%) | 5 (Level 5: growth control rate is above 85%) | 5 (Level 5: growth control rate is above 85%) | 5 (Level 5: growth control rate is above 85%) | 5 (Level 5: growth control rate is above 85%) | 5 (Level 5: growth control rate is above 85%) |  |  |  |  |  |  | 
8 | CC(O/N=C/c1cc(-n2c(=O)cc(C(F)(F)F)n(C)c2=O)c(F)cc1Cl)C(=O)OCc1cccnc1 (stereo not drawn) [Compound 302] | 5 (Level 5: growth control rate is above 85%) | 5 (Level 5: growth control rate is above 85%) | 5 (Level 5: growth control rate is above 85%) | 5 (Level 5: growth control rate is above 85%) | 5 (Level 5: growth control rate is above 85%) | 5 (Level 5: growth control rate is above 85%) |  |  |  |  |  |  | 
9 | COC(=O)C(C)O/N=C/c1cc(-n2c(=O)cc(C(F)(F)F)n(C)c2=S)c(F)cc1C(F)(F)F (racemic) [Compound 395] |  |  |  |  |  |  |  |  |  |  |  |  | Weeding effect in post-emergence stage, Echinochloa crusgalli (level) ([1]; Dose 60 g/ha): 5 (Level 5: growth control rate is above 85%); Weeding effect in post-emergence stage, Abutilon theophrasti (level) ([2]; Dose 60 g/ha): 5 (Level 5: growth control rate is above 85%); Weeding effect in post-emergence stage, Setaria viridis (level) ([3]; Dose 60 g/ha): 5 (Level 5: growth control rate is above 85%); Weeding effect in post-emergence stage, Alopecurus japonicus (level) ([4]; Dose 60 g/ha): 5 (Level 5: growth control rate is above 85%); Weeding effect in post-emergence stage, Eleusine indica (level) ([5]; Dose 60 g/ha): 5 (Level 5: growth control rate is above 85%); Weeding effect in post-emergence stage, Digitaria sanguinalis (level) ([6]; Dose 60 g/ha): 5 (Level 5: growth control rate is above 85%)
10 | CC(O/N=C/c1cc(-n2c(=O)cc(C(F)(F)F)n(C)c2=O)c(F)cc1Cl)C(=O)OCc1ccccn1 (stereo not drawn) [Compound 301] | 5 (Level 5: growth control rate is above 85%) | 5 (Level 5: growth control rate is above 85%) | 5 (Level 5: growth control rate is above 85%) | 5 (Level 5: growth control rate is above 85%) | 5 (Level 5: growth control rate is above 85%) | 5 (Level 5: growth control rate is above 85%) |  |  |  |  |  |  | 
11 | COC(=O)C(OC)O/N=C/c1cc(-n2c(=O)cc(C(F)(F)F)n(C(OC)C(=O)OC)c2=O)c(F)cc1Cl (stereo not drawn) [Compound 493] |  |  |  |  |  |  | 5 (Level 5: growth control rate is above 85%) | 5 (Level 5: growth control rate is above 85%) | 5 (Level 5: growth control rate is above 85%) | 5 (Level 5: growth control rate is above 85%) | 5 (Level 5: growth control rate is above 85%) | 5 (Level 5: growth control rate is above 85%) | 
12 | CO/N=C/c1cc(-n2c(=O)cc(C(F)(F)F)n(N)c2=O)c(F)cc1Cl [Control compound C, reference compound] |  |  |  |  |  |  | 2 (Level 2: growth control rate is greater than or equal to 20% and less than 40%) | 2 (Level 2: growth control rate is greater than or equal to 20% and less than 40%) | 2 (Level 2: growth control rate is greater than or equal to 20% and less than 40%) | 1 (Level 1: growth control rate is greater than or equal to 5% and less than 20%) | 1 (Level 1: growth control rate is greater than or equal to 5% and less than 20%) | 2 (Level 2: growth control rate is greater than or equal to 20% and less than 40%) | 
